{"source": "patent US20040009905A1", "about": "(B.M.R.A. Corporation B.V., priority 1998, published 2004)", "key": {"domestic pigs [1]": {"tested_on": "domestic pigs", "settings": "pig, in vivo", "experimental": "Experiments were performed on 16 domestic pigs of both sexes (body weight 20-30 kg). The animals were premedicated with atropine (0.05 mg/kg) and ketamine (Ketalar, ParkeDavis, USA, 20 mg/kg i.m.) and anaesthetized with thiopentone (5 mg/kg i.v.). A tracheostomy was performed and artificial ventilation was started using a volume regulated ventilator (type Siemens 900). During surgery, continuous i.v. infusion of Ringer's solution, thiopentone (15 mg/kg/h) and pancuronium bromide (0.25 mg/kg/h) was performed. […]\n2. […] Airway pressure was measured from a catheter positioned at the tip of the endotracheal tube. Transpulmonary pressure was determined by a differential pressure transducer (Hewlett-Packard 267B) taking the difference between tracheal and oesophagus pressure. Tidal volume was determined by integration of the respiratory flow signal measured with a pneumotachograph (Gould Godard, model 17212) by means of a heated Fleisch flow transducer #2 connected to the endotracheal tube. Transpulmonary pressure, tidal volume and flow were continuously recorded on a 4-channel recorder (Hewlett-Packard, 7754 GB). Total airflow resistance across the lungs (raw) was determined by dividing the difference in transpulmonary pressure by inspiratory plus expiratory flow at mid-tidal volume. […]"}, "domestic pigs [2]": {"tested_on": "domestic pigs", "settings": "pig, in vivo", "remark": "listed apart in the source", "experimental": "Experiments were performed on 16 domestic pigs of both sexes (body weight 20-30 kg). The animals were premedicated with atropine (0.05 mg/kg) and ketamine (Ketalar, ParkeDavis, USA, 20 mg/kg i.m.) and anaesthetized with thiopentone (5 mg/kg i.v.). A tracheostomy was performed and artificial ventilation was started using a volume regulated ventilator (type Siemens 900). During surgery, continuous i.v. infusion of Ringer's solution, thiopentone (15 mg/kg/h) and pancuronium bromide (0.25 mg/kg/h) was performed.\nCatheters were placed in the femoral artery for systemic blood pressure and heart rate monitoring and in the femoral vein for thiopentone and fluid administration (300 ml/h). […] Nasal arterial blood flow was monitored with a Transonic flow probe (RB 143) placed around the sphenopalatine artery and connected to a T 202 ultrasonic blood flowmeter (Transonic System Inc., Ithaca, N.Y., USA).\nHeart rate and systemic arterial blood pressure using the femoral artery catheter connected to a pressure transducer.\nSphenopalatine arterial blood flow using an Ultrasonic flow meter probe (see above)."}, "[3]": {"experiment": "Circular dichroism spectroscopy of conformational properties", "type": "physicochemical", "settings": "in TFE, 295K", "procedure": "The conformational properties of TASP-V were studied in solution mainly by circular dichroism (CD) spectroscopy under various experimental conditions. In order to detect effects of template attachment on secondary and tertiary structure formation, the corresponding single (not template attached) peptide IV was also studied.\nCD spectra were recorded on a Jobin Yvon Dichrograph Mark VI calibrated with D(+)-10-camphorsulfonic acid. All measurements were performed at 295K using quartz cells with a path length of 0.1 cm and each spectrum was the average of three repeated scans between 185 nm to 250 nm, with an integration time of Is for 0.8 nm steps. The spectra were corrected by substraction of the background solvent spectrum obtained under identical experimental conditions and smoothed for clarity of display. CD intensities are expressed as mean residue ellipticities (deg cm2 dmol-1), calculated by dividing the total molar ellipticities by the number of amino acids in the peptide."}, "NPY Y2 receptor": {"target": "T1, NPY Y2 receptor (Homo sapiens, UniProt P49146)", "T1 construct": "endogenous in cells; host or cells: LN319 (human glioblastoma)", "T1 sequence (P49146 1-381)": "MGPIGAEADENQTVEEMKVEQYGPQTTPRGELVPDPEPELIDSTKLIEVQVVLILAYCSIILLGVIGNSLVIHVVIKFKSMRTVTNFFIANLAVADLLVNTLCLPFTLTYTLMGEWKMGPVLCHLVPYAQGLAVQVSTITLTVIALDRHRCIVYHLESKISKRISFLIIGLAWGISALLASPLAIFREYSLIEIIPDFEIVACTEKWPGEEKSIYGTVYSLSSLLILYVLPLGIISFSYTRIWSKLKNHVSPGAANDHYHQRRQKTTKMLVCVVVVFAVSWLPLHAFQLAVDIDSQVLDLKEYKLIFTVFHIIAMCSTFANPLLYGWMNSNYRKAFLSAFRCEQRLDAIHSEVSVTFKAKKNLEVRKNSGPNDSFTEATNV", "experiment": "Y2 radioreceptor binding assay (125I-NPY displacement, LN319 cells)", "settings": "FIG. 7", "procedure": "Tissue culture media were purchased from Life Technologies (Basel, Switzerland) and fetal calf serum was obtained from Seromed (Berlin, Germany). 70% confluent cells were washed with PBS and harvested using 0.15% Trypsin containing 0.4 mM EDTA. Cells were further diluted 1/3 and plated onto either 60 mm cell culture dishes (Nunc, Denmark) or 12-mm glass coverslips (Huber and Co, AG, Reinach, Switzerland). Media were changed every 3 days. A human glioblastoma cell line, LN319, was used for Y2 binding studies (Greber, et al., Br. J. Pharmacol. 113:737-740 (1994)). Prior to performing binding assays, adhered LN319 cells were washed extensively with phosphate buffered saline. […] After centrifugation at 600 g for 15 minutes at a temperature of 4° C., the pellet was resuspended in the harvesting buffer. […] Incubation proceeded at room temperature for 45 minutes. Bound radioactivity was determined after separating the unbound fraction by centrifugation."}}, "note": "“Also recorded” adds a separate entry of the source. Where two headings read alike, the source gives them in different places. The star is where a group is joined. aminooxyacetyl = NOCC(=O)*", "data": [{"compound": "CC[C@H](C)[C@H](NC(=O)[C@H](Cc1ccc(O)cc1)NC(=O)[C@H](Cc1c[nH]cn1)NC(=O)[C@H](CCCNC(=N)N)NC(=O)[C@H](CC(C)C)NC(=O)[C@H](C)NC(=O)[C@H](CO)NC(=O)[C@H](Cc1ccc(O)cc1)NC(=O)CNC(=O)CON=CC(=O)NCCCC[C@@H]1NC(=O)CNC(=O)[C@H](CCCCNC(=O)C=NOCC(=O)NCC(=O)N[C@@H](Cc2ccc(O)cc2)C(=O)N[C@@H](CO)C(=O)N[C@@H](C)C(=O)N[C@@H](CC(C)C)C(=O)N[C@@H](CCCNC(=N)N)C(=O)N[C@@H](Cc2c[nH]cn2)C(=O)N[C@@H](Cc2ccc(O)cc2)C(=O)N[C@H](C(=O)N[C@@H](CC(N)=O)C(=O)N[C@@H](CC(C)C)C(=O)N[C@H](C(=O)N[C@H](C(=O)N[C@@H](CCCNC(=N)N)C(=O)N[C@@H](CCC(N)=O)C(=O)N[C@@H](CCCNC(=N)N)C(=O)N[C@@H](Cc2ccc(O)cc2)C(N)=O)[C@@H](C)O)[C@@H](C)CC)[C@@H](C)CC)NC(=O)c2ccc3cccc(c3c2)CNC1=O)C(=O)N[C@@H](CC(N)=O)C(=O)N[C@@H](CC(C)C)C(=O)N[C@H](C(=O)N[C@H](C(=O)N[C@@H](CCCNC(=N)N)C(=O)N[C@@H](CCC(N)=O)C(=O)N[C@@H](CCCNC(=N)N)C(=O)N[C@@H](Cc1ccc(O)cc1)C(N)=O)[C@@H](C)O)[C@@H](C)CC", "note": "[TASP-V]", "values": [{"measurement": "Change in heart rate or mean arterial blood pressure", "setting": "domestic pigs [1]", "result": "did not induce any change"}, {"measurement": "Change in heart rate or mean arterial blood pressure", "setting": "domestic pigs [2]", "result": "did not induce any change"}]}, {"compound": "IV: single, not template attached aminooxyacetyl NPY21-36 amide peptide (IV in FIG. 5) (aminooxyacetyl-YSALRHYINLITRQRY-NH2; SMILES CC[C@H](C)[C@H](NC(=O)[C@H](Cc1ccc(O)cc1)NC(=O)[C@H](Cc1c[nH]cn1)NC(=O)[C@H](CCCNC(=N)N)NC(=O)[C@H](CC(C)C)NC(=O)[C@H](C)NC(=O)[C@H](CO)NC(=O)[C@H](Cc1ccc(O)cc1)NC(=O)CON)C(=O)N[C@@H](CC(N)=O)C(=O)N[C@@H](CC(C)C)C(=O)N[C@H](C(=O)N[C@H](C(=O)N[C@@H](CCCNC(=N)N)C(=O)N[C@@H](CCC(N)=O)C(=O)N[C@@H](CCCNC(=N)N)C(=O)N[C@@H](Cc1ccc(O)cc1)C(N)=O)[C@@H](C)O)[C@@H](C)CC; UniProt P01303 49-64, looked up, fragment)", "values": [{"measurement": "Helicity / secondary structure content by CD", "setting": "[3]", "result": "< 30", "unit": "%"}]}, {"compound": "Leu31, Pro34 NPY: Leu31- and Pro34-substituted NPY, shown to be a Y1 agonist", "values": [{"measurement": "Affinity / binding to the Y2 receptor (in words)", "setting": "NPY Y2 receptor", "result": "poor affinity binding; also recorded: bound poorly"}]}]}
